Experimental data: article PMC5365251, “Biophysical assay for tethered signaling reactions reveals tether-controlled activity for the phosphatase SHP-1” (Science Advances, 2017)

Tests used:
[1] = test system: PEG28-ITIM; assay: SPR of SHP-1 injected over immobilised PEG28-ITIM: binding constants (MPDPDE fit); set-up: species or system mouse; conditions: tethered SPR assay with active PTP domain
Protocol: A construct expressing murine SHP-1 with an N-terminal 6× His tag was provided by M. H. Brown. Mutation of the SH2 domains was performed using a quick-change strategy. The mutations introduced were R30K and R33E for the N-terminal SH2 domain mutant and R136K for the C-terminal SH2 domain mutant previously shown to result in loss of binding ([6]). All peptides were ordered from PeptideSynthetics and were certified to be >95% pure. Peptides sequences were derived from the membrane-proximal ITIM sequence of mouse LAIR-1 receptor.
Experiments were performed on a Biacore 3000 instrument (GE Healthcare Life Sciences). All experiments were performed at 10°C and with a buffer flow rate of 10 μl/min. The buffer used was Hepes-buffered saline (HBS-EP; GE Healthcare Life Sciences), which contained 10 mM Hepes (pH 7.4), 150 mM NaCl, 3 mM EDTA, and 0.005% Surfactant P20.
A CM5 sensorchip was coupled with streptavidin to near saturation (typically between 4000 and 7000 RU) using the amine coupling kit (GE Healthcare Life Sciences) as described previously ([42]). After streptavidin was coupled, biotinylated peptides were injected to give the indicated concentrations in experimental flow cells, and excess biotin-binding sites were blocked with biotin in HBS-EP. The molar ratio of peptide to streptavidin was kept below 1:1 to ensure that peptide immobilization was random and not clustered on the tetravalent streptavidin molecules. Reference flow cells were treated with buffer and then blocked with biotin; pilot experiments using unphosphorylated control peptides in reference flow cells were indistinguishable from buffer-treated reference flow cells when injected with SHP-1. The chip surface was then conditioned with 5 × 5-min injections of HBS-EP. SHP-1 protein in HBS-EP with 1 mM dithiothreitol was then injected over reference and experimental flow cells in series for 5 min at the indicated concentrations. All SPR data were converted from the reference-subtracted data (in resonance units) to fraction bound by dividing the resonance units by the theoretical maximum resonance units expected if the experimental flow cell was saturated with bound SHP-1.
To determine the concentration of peptide in the assays, we first needed a conversion factor between the resonance units and the mass of peptide at the chip surface. We determined this conversion factor by injecting four concentrations of SHP-1 over a control flow cell on a CM5 chip and plotting the mass of SHP-1 injected against the raw resonance unit change. We repeated this on seven flow cells across four sensor chips to get an average slope of 149 ± 15 RU per g/liter (±SEM). […]

[2] = test system: PEG28-ITIM; assay: Anti-phosphotyrosine antibody injected after SHP-1 on SPR chip: surviving phosphotyrosines; assay type: biochemical, mouse
Protocol: To create a substrate surface for SHP-1 in SPR, we coated a surface with peptides containing an ITIM sequence, from the […] of the inhibitory receptor LAIR-1, with a 28-repeat polyethylene glycol (PEG) spacer (PEG28-ITIM; Table 1). When SHP-1 was injected over this surface, we observed a complicated curve with an initial binding phase that was quickly followed by a reduction in binding despite continuous injection of SHP-1 (Fig. 2A). To convert the arbitrary response units reported by the SPR instrument to a more meaningful unit, we normalized this curve to maximum binding, assuming a one-to-one interaction with peptide (see Materials and Methods).
Fig. 2 An SPR assay recovers five independent biophysical/biochemical constants characterizing tethered enzymatic reactions by SHP-1. (A) Representative SPR trace (black dots) for SHP-1 injected over a surface immobilized with 48.5 RU of an ITIM peptide derived from LAIR-1 on a 28-repeat PEG linker (PEG28-ITIM). A fit of the MPDPDE model (red line) provides estimates for the indicated parameters. Early time data and fit are shown on the right. S1. […] (C) Schematic of reactions taking place when SHP-1 is injected over a surface of immobilized phosphorylated peptides. […]

bivalent reactions (in words) [1]: no evidence for bivalent reactions
Substance: SHP-1: murine SHP-1 tyrosine phosphatase with an N-terminal 6× His tag, expressed in E. coli
dephosphorylation of immobilised peptide (in words) ([2]; anti-phosphotyrosine antibody (clone 4G10) injected after SHP-1 on SPR chip, PEG28-ITIM): near complete dephosphorylation
anti-phosphotyrosine antibody binding after SHP-1 injection (in words) ([2]; experimental flow cell compared to buffer-injected control with equivalent peptide levels, Fig. 2B): reduced binding
